We go through three compounds from patent US8846570B2, “Herbicidal compositions comprising 4-amino-3-chloro-5-fluoro-6-(4-chloro-2-fluoro-3-methoxyphenyl)pyridine-2-carboxylic acid or a derivative thereof and microtubule inhibiting herbicides” (Dow AgroSciences LLC, priority 2012, dated 2014).

Holding throughout (assay type): in vivo
The subject of experiment [1] is Echinochloa colonum (L.) Link (ECHCO). Put plainly: Pre-emergence soil-applied, greenhouse: visual weed control. From the text:
(§1) Seeds or nutlets of the desired test plant species were planted in a soil matrix prepared by mixing a loam soil (e.g., 32 percent silt, 23 percent clay, and 45 percent sand, with a pH of about 6.5 and an organic matter content of about 1.9 percent) and calcareous grit in an 80 to 20 ratio. The soil matrix was contained in plastic pots with a volume of 1 quart and a surface area of 83.6 square centimeters (cm^2).
(§2) Treatments consisted of the benzyl ester of 4-amino-3-chloro-5-fluoro-6-(4-chloro-2-fluoro-3-methoxy-phenyl)pyridine-2-carboxylic acid (compound A) formulated as an SC (suspension concentrate) and various herbicidal components alone and in combination. Forms of compound A were applied on an acid equivalent basis.
(§3) Treatment requirements were calculated based upon the rates being tested, the concentration of active ingredient or acid equivalent in the formulation, and a 12 mL application volume at a rate of 187 L/ha.
(§4) For treatments comprised of formulated compounds, measured amounts of compounds were placed individually in 25 mL glass vials and diluted in a volume of 1.25% (v/v) Agri-Dex® crop oil concentrate (COC) to obtain 12× stock solutions. […] Application solutions were prepared by adding an appropriate amount of each stock solution (e.g., 1 mL) and diluted to the appropriate final concentrations with the addition of 10 mL of an aqueous mixture of 1.25% (v/v) COC so that the final spray solutions contained 1.25% (v/v) COC.
(§5) For treatments comprised of formulated and technical compounds, weighed amounts of the technical materials were placed individually in 25 mL glass vials and dissolved in a volume of 97:3 (v/v) acetone/DMSO to obtain 12× stock solutions, and measured amounts of the formulated compounds were placed individually in 25 mL glass vials and diluted in a volume of 1.5% (v/v) COC or water to obtain 12× stock solutions. […] Application solutions were prepared by adding an appropriate amount of each stock solution (e.g., 1 mL) and diluted to the appropriate final concentrations with the addition of an appropriate amount of an aqueous mixture of 1.5% (v/v) COC so that the final spray solutions contained 1.25% (v/v) COC. As required, additional water and/or 97:3 (v/v) acetone/DMSO was added to individual application solutions so that the final acetone and DMSO concentrations of the application solutions being compared were 8.1% and 0.25%, respectively.
(§6) All stock solutions and applications solutions were visually inspected for compound compatibility prior to application. Spray solutions were applied to the soil with an overhead Mandel track sprayer equipped with a 8002E nozzles calibrated to deliver 187 L/ha over an application area of 0.503 m^2 at a spray height of 18 inches (46 cm) above average pot height. Control pots were sprayed in the same manner with the solvent blank.
(§7) The treated and control pots were placed in a greenhouse and top watered as needed. When required to ensure good germination and healthy plants, a fungicide treatment and/or other chemical or physical treatment was applied. The pots were maintained in a greenhouse with an approximate 14 hr photoperiod which was maintained at about 29° C. during the day and 26° C. during the night. Nutrients (Peters® Excel 15-5-15 5-Ca 2-Mg) were applied in the irrigation solution as needed and water was added on a regular basis. Supplemental lighting was provided with overhead metal halide 1000-Watt lamps as necessary. After approximately 4 weeks, the condition of the test plants as compared with that of the untreated plants was determined visually and scored on a scale of 0 to 100 percent where 0 corresponds to no injury or growth inhibition and 100 corresponds to complete kill.
(§8) Colby's equation was used to determine the herbicidal effects expected from the mixtures (Colby, S. R. 1967. Calculation of the synergistic and antagonistic response of herbicide combinations. Weeds 15:20-22.). […]

Experiment [2] deals with Cyperus difformis L. (CYPDI). Nature of the experiment: Postemergence foliar-applied, direct seeded rice, greenhouse: visual weed control. The settings on record: 20 DAA; 5.3 g ae/ha. As to the method: (§9) Seeds or nutlets of the desired test plant species were planted in a soil matrix prepared by mixing a loam or sandy loam soil (e.g., 28.6 percent silt, 18.8 percent clay, and 52.6 percent sand, with a pH of about 5.8 and an organic matter content of about 1.8 percent) and calcareous grit in an 80 to 20 ratio. The soil matrix was contained in plastic pots with a volume of 1 quart and a surface area of 83.6 cm^2. […] The plants were grown for 8-22 days in a greenhouse with an approximate 14 h photoperiod which was maintained at about 29° C. during the day and 26° C. during the night. Nutrients (Peters Excel® 15-5-15 5-Ca 2-Mg and iron chelate) were applied in the irrigation solution as needed and water was added on a regular basis. Supplemental lighting was provided with overhead metal halide 1000-Watt lamps as necessary. The plants were employed for testing when they reached the first through fourth true leaf stage.
(§10) Forms of compound A were applied on an acid equivalent basis.
(§11) For treatments comprised of formulated compounds, measured amounts of compounds were placed individually in 25 mL glass vials and diluted in a volume of 1.25% (v/v) Agri-Dex® crop oil concentrated to obtain 12× stock solutions. […] Application solutions were prepared by adding an appropriate amount of each stock solution (e.g., 1 mL) and diluted to the appropriate final concentrations with the addition of 10 mL of an aqueous mixture of 1.25% (v/v) crop oil concentrate so that the final spray solutions contained 1.25+/−0.05% (v/v) crop oil concentrate.
(§12) As required, additional water and/or 97:3 v/v acetone/DMSO was added to individual application solutions so that the final acetone and DMSO concentrations of the application solutions being compared were 8.1% and 0.25%, respectively.
(§13) All stock solutions and applications solutions were visually inspected for compound compatibility prior to application. Spray solutions were applied to the plant material with an overhead Mandel track sprayer equipped with a 8002E nozzles calibrated to deliver 187 L/ha over an application area of 0.503 m^2 at a spray height of 18 to 20 inches (46 to 50 cm) above average plant canopy height. Control plants were sprayed in the same manner with the solvent blank.
(§14) The treated plants and control plants were placed in a greenhouse as described above and watered by sub-irrigation to prevent wash-off of the test compounds. After approximately 3 weeks, the condition of the test plants as compared with that of the untreated plants was determined visually and scored on a scale of 0 to 100 percent where 0 corresponds to no injury or growth inhibition and 100 corresponds to complete kill.
(§15) Colby's equation was used to determine the herbicidal effects expected from the mixtures (Colby, S. R. 1967. Calculation of the synergistic and antagonistic response of herbicide combinations. Weeds 15:20-22.).
(§16) The following equation was used to calculate the expected activity of mixtures containing two active ingredients, A and B: Expected=A+B−(A×B/100)

Experiment [3] relates to Cyperus esculentus L. (CYPES). The description is as above. The settings on record: 20 DAA. As to the method: as §9, §10, §11, §12, §13, §14, §15, §16
Experiment [4] has as its system Schoenoplectus juncoides (Roxb.) Palla (SCPJU). Described as above. Conditions: 20 DAA; 5.3 g ae/ha. As to the method: as §9, §10, §11, §12, §13, §14, §15, §16
The test system of experiment [5] is Xanthium strumarium L. (XANST). Put plainly: Pre-emergence soil-applied, greenhouse: visual weed control. Conditions: 27 DAA.
Source text: as §1, §2, §3, §4, §5, §6, §7, §8

For `COc1c(Cl)ccc(-c2nc(C(=O)OCc3ccccc3)c(Cl)c(N)c2F)c1F` [Compound A Benzyl Ester, benzyl ester of 4-amino-3-chloro-5-fluoro-6-(4-chloro-2-fluoro-3-methoxy-phenyl)pyridine-2-carboxylic acid], the “Visual Weed Control (%) - 33 DAA ECHCO Obs” value in experiment [1] (Compound A Benzyl Ester 16 g ae/ha alone) came out at 12%; in experiment [1] (Compound A Benzyl Ester 32 g ae/ha alone) it was 3%.

As to `COc1c(Cl)ccc(-c2nc(C(=O)O)c(Cl)c(N)c2F)c1F` [Compound A Acid, 4-amino-3-chloro-6-(4-chloro-2-fluoro-3-methoxyphenyl)-5-fluoropyridine-2-carboxylic acid], the “Visual Weed Control (%) Obs” value in experiment [2] was 80%; in experiment [3] (5.3 g ae/ha) it was 0%; in experiment [3] (10.6 g ae/ha) it was 90%; in experiment [4], 25%.

With `CSC(=O)c1c(C(F)F)nc(C(F)(F)F)c(C(=O)SC)c1CC(C)C` [Dithiopyr, S,S′-dimethyl-2-(difluoromethyl)-4-(2-methylpropyl)-6-(trifluoromethyl)-3,5-pyridinedicarbothioate], the “Visual Weed Control (%) Obs” value in experiment [5] (140 g ai/ha) was found to be 0%; in experiment [5] (280 g ai/ha) it was 17%.
